# Reference: US8541585B2, “N-acyl cyclic amine derivative or pharmaceutically acceptable salt thereof” (Dainippon Sumitomo Pharma Co., Ltd., priority 2010, dated 2013)
# Experiments:
# human D2L receptor = human D2L receptor (Homo sapiens, UniProt P14416); assay: Dopamine D2L receptor binding assay ([3H]-spiperone); conditions: 10 nM test drug; [3H]-spiperone 0.5 nM; human D2L receptor-expressing CHO cell membrane; read-out: BINDING INHIBITION RATE (%) D2L 10 nM
# Protocol: (1) Dopamine D2L Receptor Binding Assay
# D2L receptor binding assay was performed in reference to a method described by Hirose et al. (Japan. J. Pharmacol., 53, 321-329, 1990). After a reaction in a total volume of 200 μL of 50 mM Tris-HCl (pH=7.6) buffer solution containing 50 μL of [^3H]-spiperone (final concentration 0.5 nM), 1 μL of test drug in DMSO, and 149 μL of human D2L receptor-expressing CHO cell membrane sample, human D2L receptor binding activity of [^3H]-spiperone was measured. The reaction solution let stand for 60 minutes at room temperature, and then it was quickly added on a glass fiber filter plate (Multiscreen FB, Millipore inc.) coated with 0.3% polyethyleneimine (PEI) and filtered under reduced pressure. The glass fiber filter was washed with 200 μL of ice-cooled 50 mM Tris-HCl (pH=7.6) twice, repeatedly filtered under reduced pressure, and then transferred to a vial containing 4 mL of Ecoscint A (National Diagnostics inc.). The residual radioactivity on the glass fiber filter was measured by a liquid scintillation counter. Nonspecific binding was measured in the presence of 10 μM of spiperone, and [^3H]-spiperone binding inhibition rate in the presence of 10 nM of test drug was determined. The larger binding inhibition rate (%) means that test drug has the higher binding affinity for human D2L receptor.
# human α1D receptor = target: T1, human α1D receptor (Homo sapiens, UniProt P25100); assay: Adrenaline α1D receptor binding assay ([3H]-prazosin); conditions: 100 nM test drug; [3H]-prazosin 0.6 nM; human α1D receptor-expressing CHO cell membrane; read-out: BINDING INHIBITION RATE (%) α1D 100 nM
# T1 construct: expressed in transfected cells; host or cells: CHO cells (membrane preparation)
# T1 sequence (P25100 1-572): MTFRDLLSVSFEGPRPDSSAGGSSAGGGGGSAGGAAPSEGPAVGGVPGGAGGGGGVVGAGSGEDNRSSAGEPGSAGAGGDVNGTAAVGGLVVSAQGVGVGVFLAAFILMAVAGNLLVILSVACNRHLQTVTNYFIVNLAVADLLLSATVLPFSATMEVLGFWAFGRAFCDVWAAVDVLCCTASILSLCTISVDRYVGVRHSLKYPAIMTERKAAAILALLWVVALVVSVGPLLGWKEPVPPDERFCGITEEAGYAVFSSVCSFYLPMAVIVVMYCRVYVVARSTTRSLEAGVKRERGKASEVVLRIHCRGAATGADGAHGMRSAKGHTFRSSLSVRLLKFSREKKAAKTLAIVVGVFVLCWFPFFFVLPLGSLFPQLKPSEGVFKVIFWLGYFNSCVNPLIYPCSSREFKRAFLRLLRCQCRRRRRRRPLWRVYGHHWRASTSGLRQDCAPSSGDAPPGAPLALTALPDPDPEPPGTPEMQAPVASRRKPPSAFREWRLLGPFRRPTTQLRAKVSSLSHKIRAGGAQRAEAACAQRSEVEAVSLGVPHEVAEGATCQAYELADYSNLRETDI
# Protocol: (4) Adrenaline α1D Receptor Binding Assay
# After a reaction in a total volume of 200 μL of 50 mM Tris-HCl (pH=7.6) buffer solution containing 50 μL of [^3H]-prazosin (final concentration 0.6 nM), 1 μL of test drug in DMSO, and 149 μL of human α1D receptor-expressing CHO cell membrane sample, human α1D receptor binding activity of [^3H]-prazosin was measured. The reaction solution let stand for 30 minutes at room temperature, and then it was quickly added on a glass fiber filter plate (Multiscreen FB, Millipore inc.) coated with 0.3% polyethyleneimine (PEI) and filtered under reduced pressure. The glass fiber filter was washed with 200 μL of ice-cooled 50 mM Tris-HCl (pH=7.6) twice, repeatedly filtered under reduced pressure, and then transferred to a vial containing 4 mL of Ecoscint A (National Diagnostics inc.). The residual radioactivity on the glass fiber filter was measured by a liquid scintillation counter. Nonspecific binding was measured in the presence of 1 μM of prazosin, and [^3H]-prazosin binding inhibition rate in the presence of 100 nM of test drug was determined.
# human 5-HT6 receptor = target: T2, human 5-HT6 receptor (Homo sapiens, UniProt P50406); assay: Serotonin 5-HT6 receptor binding assay ([3H]-clozapine); conditions: 100 nM test drug; [3H]-clozapine 2 nM; human 5-HT6 receptor-expressing CHO cell membrane; read-out: BINDING INHIBITION RATE (%) 5HT6 100 nM
# T2 construct: expressed in transfected cells; host or cells: CHO cells (membrane preparation)
# T2 sequence (P50406 whole entry): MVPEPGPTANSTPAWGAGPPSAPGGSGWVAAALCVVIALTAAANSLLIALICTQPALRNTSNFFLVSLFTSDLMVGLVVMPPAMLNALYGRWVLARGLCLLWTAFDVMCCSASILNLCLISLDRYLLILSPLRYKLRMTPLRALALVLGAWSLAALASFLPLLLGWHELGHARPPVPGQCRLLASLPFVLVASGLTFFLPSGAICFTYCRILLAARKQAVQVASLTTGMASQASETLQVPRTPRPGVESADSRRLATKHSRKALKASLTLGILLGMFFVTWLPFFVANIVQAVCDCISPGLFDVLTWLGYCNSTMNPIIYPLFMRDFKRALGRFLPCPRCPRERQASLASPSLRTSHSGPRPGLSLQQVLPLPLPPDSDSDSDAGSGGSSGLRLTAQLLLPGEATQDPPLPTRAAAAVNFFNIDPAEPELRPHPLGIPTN
# Protocol: (3) Serotonin 5-HT6 Receptor Binding Assay
# After a reaction in a total volume of 200 μL of 50 mM Tris-HCl (pH=7.6), 4 mM CaCl2, and 0.5 mM EDTA buffer solution containing 50 μL of [^3H]-clozapine (final concentration 2 nM), 1 μL of test drug in DMSO, and 149 μL of human 5-HT6 receptor-expressing CHO cell membrane sample, human 5-HT6 receptor binding activity of [^3H]-clozapine was measured. The reaction solution let stand for 40 minutes at room temperature, and then it was quickly added on a glass fiber filter plate (Multiscreen FB, Millipore inc.) coated with 0.3% polyethyleneimine (PEI) and filtered under reduced pressure. The glass fiber filter was washed with 200 μL of ice-cooled 50 mM Tris-HCl (pH=7.6) twice, repeatedly filtered under reduced pressure, and then transferred to a vial containing 4 mL of Ecoscint A (National Diagnostics inc.). The residual radioactivity on the glass fiber filter was measured by a liquid scintillation counter. Nonspecific binding was measured in the presence of 10 μM of SB-258585, and [^3H]-clozapine binding inhibition rate in the presence of 100 nM of test drug was determined.
# human 5-HT2A receptor = target: T3, human 5-HT2A receptor (Homo sapiens, UniProt P28223); assay: Serotonin 5-HT2A receptor binding assay ([3H]-ketanserin); conditions: [3H]-ketanserin 1 nM, human 5-HT2A receptor-expressing CHO cell membrane; for inhibition at 0.001 µM: 1 nM test drug, read-out: BINDING INHIBITION RATE (%) 5HT2A 1 nM; for inhibition at 0.01 µM: 10 nM test drug, read-out: BINDING INHIBITION RATE (%) 5HT2A 10 nM
# T3 construct: expressed in transfected cells; host or cells: CHO cells (membrane preparation)
# T3 sequence (P28223 whole entry): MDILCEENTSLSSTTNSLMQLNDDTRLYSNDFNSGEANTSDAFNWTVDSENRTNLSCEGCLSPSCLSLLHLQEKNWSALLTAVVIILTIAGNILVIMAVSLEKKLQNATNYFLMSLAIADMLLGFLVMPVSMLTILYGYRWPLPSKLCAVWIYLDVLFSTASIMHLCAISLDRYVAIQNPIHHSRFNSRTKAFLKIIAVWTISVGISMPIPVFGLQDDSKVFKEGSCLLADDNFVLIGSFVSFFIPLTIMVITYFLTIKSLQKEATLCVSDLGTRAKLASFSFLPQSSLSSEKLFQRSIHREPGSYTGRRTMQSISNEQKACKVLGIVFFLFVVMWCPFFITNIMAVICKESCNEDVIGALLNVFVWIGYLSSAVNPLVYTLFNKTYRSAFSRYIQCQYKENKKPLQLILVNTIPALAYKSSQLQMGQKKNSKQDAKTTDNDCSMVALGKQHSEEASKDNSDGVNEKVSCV
# Protocol: (2) Serotonin 5-HT2A Receptor Binding Assay
# 5-HT2A receptor binding assay was performed in reference to a method described by Hirose et al. (Japan. J. Pharmacol., 53, 321-329, 1990). After a reaction in a total volume of 200 μL of 50 mM Tris-HCl (pH=7.6) buffer solution containing 50 μL of [^3H]-ketanserin (final concentration 1 nM), 1 μL of test drug in DMSO, and 149 μL of human 5-HT2A receptor-expressing CHO cell membrane sample, human 5-HT2A receptor binding activity of [^3H]-ketanserin was measured. The reaction solution let stand for 15 minutes at 37° C., and then it was quickly added on a glass fiber filter plate (Multiscreen FB, Millipore inc.) coated with 0.05% Brij 35 and filtered under reduced pressure. The glass fiber filter was washed with 200 μL of ice-cooled 50 mM Tris-HCl (pH=7.6) twice, repeatedly filtered under reduced pressure, and then transferred to a vial containing 4 mL of Ecoscint A (National Diagnostics inc.). The residual radioactivity on the glass fiber filter was measured by a liquid scintillation counter. Nonspecific binding was measured in the presence of 10 μM of MDL-100907, and [^3H]-ketanserin binding inhibition rate in the presence of 1 nM or 10 nM of test drug was determined.
# human D2L receptor, sequence (P14416 whole entry): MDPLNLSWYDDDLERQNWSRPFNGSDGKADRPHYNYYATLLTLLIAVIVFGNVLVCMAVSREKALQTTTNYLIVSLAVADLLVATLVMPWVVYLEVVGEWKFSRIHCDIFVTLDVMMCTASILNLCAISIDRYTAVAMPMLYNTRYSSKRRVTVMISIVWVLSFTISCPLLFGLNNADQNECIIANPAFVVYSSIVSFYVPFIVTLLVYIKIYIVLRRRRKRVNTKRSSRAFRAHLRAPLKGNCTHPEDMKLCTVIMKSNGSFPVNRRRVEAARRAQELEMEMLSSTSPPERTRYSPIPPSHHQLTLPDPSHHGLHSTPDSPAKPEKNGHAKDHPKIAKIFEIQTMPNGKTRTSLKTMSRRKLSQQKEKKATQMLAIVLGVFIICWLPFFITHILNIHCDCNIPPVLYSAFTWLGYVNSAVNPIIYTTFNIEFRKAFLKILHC
SMILES,inhibition at 0.01 µM (human D2L receptor) [%],inhibition at 0.1 µM (human α1D receptor) [%],inhibition at 0.1 µM (human 5-HT6 receptor) [%],inhibition at 0.001 µM (human 5-HT2A receptor) [%],inhibition at 0.01 µM (human 5-HT2A receptor) [%]
"Cc1ccc2cc(C(=O)N3CCC[C@H]3CCN3CCN(c4n[nH]c5ccccc45)CC3)[nH]c2c1 [Example 2, (S)-(2-(2-(4-(1H-Indazol-3-yl)piperazin-1-yl)ethyl)pyrrolidin-1-yl)(6-methyl-1H-indol-2-yl)methanone]",73,63,95,65,
Cc1ccc2cc(C(=O)N3CCC[C@H]3CCN3CCC(N4CCc5cc(F)ccc54)CC3)[nH]c2c1 [Example 3],80,74,94,65,
"O=C(/C=C/c1ccc2c(c1)OCO2)N1CCC[C@@H](CCN2CCN(c3nsc4ccccc34)CC2)C1 [Example 4, (S,E)-3-(Benzo[d][1,3]-5-dioxolyl)-1-(3-(2-(4-(benzo[d]isothiazo-3-yl)piperazin-1-yl)ethyl)piperidin-1-yl)-2-propen-1-one]",73,30,65,,96
Cc1ccc2cc(C(=O)N3CCC[C@H]3CCN3CCC(c4c[nH]c5cc(F)ccc45)CC3)[nH]c2c1 [Example 5],83,70,98,72,
"Cc1ccc2cc(C(=O)N3CCC[C@H]3CCN3CCC(c4noc5cc(F)ccc45)CC3)[nH]c2c1 [Example 6, (S)-(2-(2-(4-(6-Fluorobenzo[d]isoxazol-3-yl)piperidin-1-yl)ethyl)pyrrolidin-1-yl)(6-methyl-1H-indol-2-yl)methanone]",91,71,94,61,
"O=C(c1cc2cc(F)ccc2[nH]1)N1CCOC[C@H]1CCN1CCC(c2c[nH]c3ccccc23)CC1 [Example 7, (R)-(3-(2-(4-(1H-Indol-3-yl)piperidin-1-yl)ethyl)morpholino)(5-fluoro-1H-indol-2-yl)methanone]",85,86,97,,100
"Cc1ccc2[nH]c(C(=O)N3CCC[C@H]3CCN3CCC(c4coc5ccccc45)CC3)cc2c1 [Example 8, (S)-(2-(2-(4-(Benzofuran-3-yl)piperidin-1-yl)ethyl)pyrrolidin-1-yl)(5-methyl-1H-indol-2-yl)methanone]",76,62,93,,92
O=C(/C=C/c1ccc2c(c1)OCO2)N1CCCC[C@H]1CCN1CCN(c2cccc3ccccc23)CC1 [Example 9],32,5,61,,94
Cc1ccc2cc(C(=O)N3CCC[C@H]3CCN3CCC(n4ccc5ccc(F)cc54)CC3)[nH]c2c1 [Example 10],52,12,74,37,
Cc1ccc2cc(C(=O)N3CCC[C@H]3CCN3CCN(c4nccc5ccccc45)CC3)[nH]c2c1 [Example 11],69,5,86,64,
Cc1ccc2cc(C(=O)N3CCC[C@H]3CCN3CCC(N4CCCc5ccccc54)CC3)[nH]c2c1 [Example 12],59,43,84,28,
Cc1ccc2cc(C(=O)N3CCC[C@H]3CCN3CCN(c4nsc5cc(F)ccc45)CC3)[nH]c2c1 [Example 13],72,60,93,34,
COc1ccc2cc(C(=O)N3CCOC[C@H]3CCN3CCC(c4noc5cc(F)ccc45)CC3)[nH]c2c1 [Example 15],84,74,79,76,94
O=C(/C=C/c1ccc2c(c1)OCO2)N1CCC[C@@H](CN2CCC(c3noc4cc(F)ccc34)CC2)C1 [Example 16],97,91,87,,93
O=C(/C=C/c1ccc2c(c1)OCO2)N1CCC[C@H](CN2CCC(c3noc4cc(F)ccc34)CC2)C1 [Example 17],84,92,93,,99
O=C(/C=C/c1ccc2c(c1)OCO2)N1CC[C@H]1CCN1CCC(c2noc3cc(F)ccc23)CC1 [Example 18],54,102,74,,100
Cc1ccc2cc(C(=O)N3CCC[C@H]3CCN3CCN(c4noc5cc(F)ccc45)CC3)[nH]c2c1 [Example 21],73,55,94,41,
Cc1ccc2cc(C(=O)N3CCCC[C@H]3CCN3CCN(c4n[nH]c5ccccc45)CC3)[nH]c2c1 [Example 23],62,34,75,34,
